# Test results reported in patent US8383581B2, “Short-chain peptides as parathyroid hormone (PTH) receptor agonist” (Cadila Healthcare Limited, priority 2009, dated 2013).
# Where a SMILES comes first, the peptide text is derived from it. [ ]: non-standard residue; d: D form. ξ: configuration not given here. ξαMeBip(2'-Et,4'-OMe) = CCc1cc(OC)ccc1-c1ccc(CC(C)(N)C(=O)O)cc1; ξBip(2'-Et-4'-OMe) = CCc1cc(OC)ccc1-c1ccc(CC(N)C(=O)O)cc1; ξαMe(hhPhe) = CC(N)(CCCc1ccccc1)C(=O)O; ξαMePhe(2-F) = CC(N)(Cc1ccccc1F)C(=O)O; ξαMeW = CC(N)(Cc1c[nH]c2ccccc12)C(=O)O; hhPhe = N[C@@H](CCCc1ccccc1)C(=O)O; hArg = N=C(N)NCCCC[C@H](N)C(=O)O; NMeV = CN[C@H](C(=O)O)C(C)C; ξαMeNle = CCCCC(C)(N)C(=O)O; ξαMeV = CC(C)C(C)(N)C(=O)O; ξαMeM = CSCCC(C)(N)C(=O)O; Ac5c = NC1(C(=O)O)CCCC1; Ac3c = NC1(C(=O)O)CC1; Aib = CC(C)(N)C(=O)O
# Experiments:
# Format in all cases: in vitro ADME
# [1] = Stability of peptides in human plasma; settings: human, plasma; for metabolised at 24 h, 2 μM: pH 7.8
# Procedure, shortened: (§1)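 Peptides at 2 μM final incubated 0–24 h at 37 °C (50 mM triethanolamine-HCl, pH 7.8) in each matrix, matrix level set to degrade ~50% PTH(1-34) in 1 h; TFA-quenched, C18 HPLC at 206 nm with ESI-MS peak identification; percent degradation from peak areas at each time point.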
# [2] = Stability of peptides in simulated gastric fluid (pH 1.5; HCl, NaCl and Pepsin); settings: pH 1.5; for % degradation of peptides in 24 h when incubated with simulated gastric fluid: 2 μM; for half-life: simulated gi fluid
# [3] = Stability of peptides in simulated intestinal fluid (pH 7.5); settings: pH 7.5; for half-life: simulated gi fluid; for % degradation of peptides in 24 h when incubated with simulated intestinal fluid: 2 μM
# Procedure, shortened: as §1
# [4] = Stability of peptides in human liver microsomes; settings: human, microsomes; for % degradation of peptides in 24 h when incubated with liver microsomes: 2 μM, pH 7.8
# Procedure, shortened: as §1
Structure (SMILES),half-life (t1/2) in human plasma [1],"metabolised at 24 h, 2 μM [1] [%]",% degradation of peptides in 24 h when incubated with simulated gastric fluid [2] [%],half-life [2] [h],half-life [3] [h],% degradation of peptides in 24 h when incubated with simulated intestinal fluid [3] [%],half-life [4] [h],% degradation of peptides in 24 h when incubated with liver microsomes [4] [%],half-life [1] [h],half-life (t1/2) in liver microsomes [4]
"CCCCC(C)(NC(=O)[C@H](CC(C)C)NC(=O)[C@H](CCC(N)=O)NC(=O)[C@@H](NC(=O)[C@H](CCC(=O)O)NC(=O)C(C)(C)NC(=O)[C@@H](NC(=O)C(C)(C)NC(=O)[C@@H](N)C(C)C)C(C)C)[C@@H](C)CC)C(=O)N[C@@H](Cc1c[nH]cn1)C(=O)N[C@@H](CCC(N)=O)C(=O)N[C@@H](CCCCNC(=N)N)C(=O)N[C@@H](C)C(=O)N[C@@H](CCCCNC(=N)N)C(=O)NC(C)(Cc1ccc(-c2ccc(OC)cc2CC)cc1)C(=O)N[C@@H](CCCc1ccccc1)C(N)=O (some centres unmarked) [Seq. ID. 915] (H-V[Aib]V[Aib]EIQL[ξαMeNle]HQ[hArg]A[hArg][ξαMeBip(2'-Et,4'-OMe)][hhPhe]-NH2)",(9) h,80,100,0.5,0.5,100,0.5,100,,
CCc1cc(OC)ccc1-c1ccc(CC(NC(=O)[C@H](CCCCNC(=N)N)NC(=O)[C@H](C)NC(=O)[C@H](CCCCNC(=N)N)NC(=O)[C@H](CCC(N)=O)NC(=O)[C@H](Cc2c[nH]cn2)NC(=O)C(C)(CCSC)NC(=O)[C@H](CC(C)C)NC(=O)[C@H](CCC(N)=O)NC(=O)[C@@H](NC(=O)[C@H](CCC(=O)O)NC(=O)C(C)(C)NC(=O)[C@@H](NC(=O)C(C)(C)NC(=O)[C@@H](N)C(C)C)C(C)C)[C@@H](C)CC)C(=O)NC(C)(CCCc2ccccc2)C(N)=O)cc1 (some centres unmarked) [Seq. ID. 920] (H-V[Aib]V[Aib]EIQL[ξαMeM]HQ[hArg]A[hArg][ξBip(2'-Et-4'-OMe)][ξαMe(hhPhe)]-NH2),,0,00,> 24,> 24,00,,35,> 24,(5) h
CC[C@H](C)[C@H](NC(=O)[C@H](CCC(=O)O)NC(=O)C(C)(C)NC(=O)[C@@H](NC(=O)C(C)(C)N)C(C)C)C(=O)N[C@@H](CCC(N)=O)C(=O)N[C@@H](CC(C)C)C(=O)NC(C)(CCSC)C(=O)N[C@@H](Cc1c[nH]cn1)C(=O)N[C@@H](CCC(N)=O)C(=O)N[C@@H](CCCCNC(=N)N)C(=O)N[C@@H](C)C(=O)N[C@@H](CCCCNC(=N)N)C(=O)NC(C)(Cc1ccccc1F)C(=O)N[C@@H](CCCc1ccccc1)C(N)=O (some centres unmarked) [Seq. ID. 930] (H-[Aib]V[Aib]EIQL[ξαMeM]HQ[hArg]A[hArg][ξαMePhe(2-F)][hhPhe]-NH2),,0,00,> 24,> 24,00,,32,> 24,(5) h
CC[C@H](C)[C@H](NC(=O)[C@H](CCC(=O)O)NC(=O)C(C)(C)NC(=O)[C@@H](NC(=O)C1(NC(=O)[C@@H](N)C(C)C)CCCC1)C(C)C)C(=O)N[C@@H](CCC(N)=O)C(=O)N[C@@H](CC(C)C)C(=O)NC(C)(CCSC)C(=O)N[C@@H](Cc1c[nH]cn1)C(=O)N[C@@H](CCC(N)=O)C(=O)N[C@@H](CCCCNC(=N)N)C(=O)N[C@@H](C)C(=O)N[C@@H](CCCCNC(=N)N)C(=O)NC(C)(Cc1ccccc1F)C(=O)NC(C)(CCCc1ccccc1)C(N)=O (some centres unmarked) [Seq. ID. 936] (H-V[Ac5c]V[Aib]EIQL[ξαMeM]HQ[hArg]A[hArg][ξαMePhe(2-F)][ξαMe(hhPhe)]-NH2),,0,52,4,> 24,00,2,81,> 24,
CCCCC(C)(NC(=O)[C@H](CC(C)C)NC(=O)[C@H](CCC(N)=O)NC(=O)[C@@H](NC(=O)[C@H](CCC(=O)O)NC(=O)C(C)(C)NC(=O)[C@@H](NC(=O)C1(NC(=O)C(C)(N)C(C)C)CCCC1)C(C)C)[C@@H](C)CC)C(=O)N[C@@H](Cc1c[nH]cn1)C(=O)N[C@@H](CCC(N)=O)C(=O)N[C@@H](CCCCNC(=N)N)C(=O)N[C@@H](C)C(=O)N[C@@H](CCCCNC(=N)N)C(=O)NC(C)(Cc1ccccc1F)C(=O)NC(C)(CCCc1ccccc1)C(N)=O (some centres unmarked) [Seq. ID. 939] (H-[ξαMeV][Ac5c]V[Aib]EIQL[ξαMeNle]HQ[hArg]A[hArg][ξαMePhe(2-F)][ξαMe(hhPhe)]-NH2),,10,08,> 22,> 22,09,,33,> 20,(5) h
CC[C@H](C)[C@H](NC(=O)[C@H](CCC(=O)O)NC(=O)C(C)(C)NC(=O)[C@@H](NC(=O)C1(NC(=O)[C@@H](NC)C(C)C)CCCC1)C(C)C)C(=O)N[C@@H](CCC(N)=O)C(=O)N[C@@H](CC(C)C)C(=O)NC(C)(CCSC)C(=O)N[C@@H](Cc1c[nH]cn1)C(=O)N[C@@H](CCC(N)=O)C(=O)N[C@@H](CCCCNC(=N)N)C(=O)N[C@@H](C)C(=O)N[C@@H](CCCCNC(=N)N)C(=O)NC(C)(Cc1ccccc1F)C(=O)NC(C)(CCCc1ccccc1)C(N)=O (some centres unmarked) [Seq. ID. 940] (H-[NMeV][Ac5c]V[Aib]EIQL[ξαMeM]HQ[hArg]A[hArg][ξαMePhe(2-F)][ξαMe(hhPhe)]-NH2),,0,00,> 24,> 24,00,,32,> 24,(5) h
CCCCC(C)(NC(=O)[C@H](CC(C)C)NC(=O)[C@H](CCC(N)=O)NC(=O)[C@@H](NC(=O)[C@H](CCC(=O)O)NC(=O)C(C)(C)NC(=O)[C@@H](NC(=O)C1(N)CC1)C(C)C)[C@@H](C)CC)C(=O)N[C@@H](Cc1c[nH]cn1)C(=O)N[C@@H](CCC(N)=O)C(=O)N[C@@H](CCCCNC(=N)N)C(=O)N[C@@H](C)C(=O)N[C@@H](CCCCNC(=N)N)C(=O)NC(C)(Cc1c[nH]c2ccccc12)C(=O)N[C@@H](CCCc1ccccc1)C(N)=O (some centres unmarked) [Seq. ID. 945] (H-[Ac3c]V[Aib]EIQL[ξαMeNle]HQ[hArg]A[hArg][ξαMeW][hhPhe]-NH2),(9) h,75,100,0.5,0.5,100,0.5,100,,
